Test results published in PubChem BioAssay (NCI).
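Five compound concentrations were applied to cells in 96-well plates for 48 hours; endpoints were derived by simple linear interpolation of the resulting dose-response curve. TGI is the concentration that stops growth completely.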

Assays:
Experiment in all cases: inhibition of tumour cell growth, NCI panel, 48 h
SK-MEL-28 melanoma = test system: SK-MEL-28 melanoma
SNB-19 CNS = test system: SNB-19 CNS
HS 578T breast = test system: HS 578T breast
UACC-62 melanoma = test system: UACC-62 melanoma
NCI/ADR-RES ovarian = test system: NCI/ADR-RES ovarian
SR leukemia = test system: SR leukemia
MCF7 breast = test system: MCF7 breast
MALME-3M melanoma = test system: MALME-3M melanoma
DU-145 prostate = test system: DU-145 prostate
SK-MEL-2 melanoma = test system: SK-MEL-2 melanoma
MDA-MB-435 = test system: MDA-MB-435
OVCAR-8 ovarian = test system: OVCAR-8 ovarian
NCI-H460 lung = test system: NCI-H460 lung
OVCAR-3 ovarian = test system: OVCAR-3 ovarian
MDA-MB-231 breast = test system: MDA-MB-231 breast
IGROV1 ovarian = test system: IGROV1 ovarian
SF-268 CNS = test system: SF-268 CNS
SW-620 colon = test system: SW-620 colon
SF-539 CNS = test system: SF-539 CNS
EKVX NSCLC = test system: EKVX NSCLC
K-562 leukemia = test system: K-562 leukemia
TK-10 renal = test system: TK-10 renal
ACHN renal = test system: ACHN renal
NCI-H23 lung = test system: NCI-H23 lung
HOP-62 NSCLC = test system: HOP-62 NSCLC
SN12C renal = test system: SN12C renal
PC-3 prostate = test system: PC-3 prostate
SNB-75 CNS = test system: SNB-75 CNS
HCT-15 colon = test system: HCT-15 colon
KM12 colon = test system: KM12 colon
CAKI-1 renal = test system: CAKI-1 renal
MDA-N = test system: MDA-N
RXF 393 renal = test system: RXF 393 renal
HL-60(TB) leukemia = test system: HL-60(TB) leukemia
OVCAR-5 ovarian = test system: OVCAR-5 ovarian
COLO 205 colon = test system: COLO 205 colon
SK-MEL-5 melanoma = test system: SK-MEL-5 melanoma
LOX IMVI melanoma = test system: LOX IMVI melanoma
CCRF-CEM leukemia = test system: CCRF-CEM leukemia
SF-295 CNS = test system: SF-295 CNS
A549 NSCLC = test system: A549 NSCLC
NCI-H522 lung = test system: NCI-H522 lung
M14 melanoma = test system: M14 melanoma
HOP-92 NSCLC = test system: HOP-92 NSCLC
HCC-2998 colon = test system: HCC-2998 colon
HT29 colon = test system: HT29 colon
UACC-257 melanoma = test system: UACC-257 melanoma
RPMI-8226 leukemia = test system: RPMI-8226 leukemia
MOLT-4 leukemia = test system: MOLT-4 leukemia
SK-OV-3 ovarian = test system: SK-OV-3 ovarian
U251 CNS = test system: U251 CNS
A498 renal = test system: A498 renal
NCI-H226 lung = test system: NCI-H226 lung
UO-31 renal = test system: UO-31 renal
HCT-116 colon = test system: HCT-116 colon
786-0 renal = test system: 786-0 renal
OVCAR-4 ovarian = test system: OVCAR-4 ovarian
T-47D breast = test system: T-47D breast

Cc1nc2ccc(Cl)cc2c(Cl)c1CCCl
TGI (SK-MEL-28 melanoma): > 100 µM | TGI (SNB-19 CNS): > 100 µM | TGI (HS 578T breast): > 100 µM | TGI (UACC-62 melanoma): > 100 µM | TGI (NCI/ADR-RES ovarian): > 100 µM | TGI (SR leukemia): > 100 µM | TGI (MCF7 breast): 99.2 µM | TGI (MALME-3M melanoma): > 100 µM | TGI (DU-145 prostate): > 100 µM | TGI (SK-MEL-2 melanoma): > 100 µM | TGI (MDA-MB-435): 31.2 µM | TGI (OVCAR-8 ovarian): > 100 µM | TGI (NCI-H460 lung): > 100 µM | TGI (OVCAR-3 ovarian): > 100 µM | TGI (MDA-MB-231 breast): > 100 µM | TGI (IGROV1 ovarian): > 100 µM | TGI (SF-268 CNS): > 100 µM | TGI (SW-620 colon): > 100 µM | TGI (SF-539 CNS): > 100 µM | TGI (EKVX NSCLC): > 100 µM | TGI (K-562 leukemia): > 100 µM | TGI (TK-10 renal): > 100 µM | TGI (ACHN renal): > 100 µM | TGI (NCI-H23 lung): > 100 µM | TGI (HOP-62 NSCLC): > 100 µM | TGI (SN12C renal): > 100 µM | TGI (PC-3 prostate): > 100 µM | TGI (SNB-75 CNS): > 100 µM | TGI (HCT-15 colon): > 100 µM | TGI (KM12 colon): > 100 µM | TGI (CAKI-1 renal): > 100 µM | TGI (MDA-N): 40.9 µM | TGI (RXF 393 renal): > 100 µM | TGI (HL-60(TB) leukemia): > 100 µM | TGI (OVCAR-5 ovarian): > 100 µM | TGI (COLO 205 colon): > 100 µM | TGI (SK-MEL-5 melanoma): > 100 µM | TGI (LOX IMVI melanoma): > 100 µM | TGI (CCRF-CEM leukemia): > 100 µM | TGI (SF-295 CNS): > 100 µM | TGI (A549 NSCLC): > 100 µM | TGI (NCI-H522 lung): > 100 µM | TGI (M14 melanoma): > 100 µM | TGI (HOP-92 NSCLC): 94.2 µM | TGI (HCC-2998 colon): > 100 µM | TGI (HT29 colon): > 100 µM | TGI (UACC-257 melanoma): > 100 µM | TGI (RPMI-8226 leukemia): > 100 µM | TGI (MOLT-4 leukemia): > 100 µM | TGI (SK-OV-3 ovarian): > 100 µM | TGI (U251 CNS): > 100 µM | TGI (A498 renal): > 100 µM | TGI (NCI-H226 lung): > 100 µM | TGI (UO-31 renal): > 100 µM | TGI (HCT-116 colon): > 100 µM | TGI (786-0 renal): > 100 µM

Nc1nc(N)c2nc(CNc3ccc(C(=O)NC(CCC(=O)O)C(=O)O)cc3F)cnc2n1 (configuration not stated)
TGI (SK-MEL-28 melanoma): > 100 µM | TGI (SNB-19 CNS): > 100 µM | TGI (HS 578T breast): > 100 µM | TGI (UACC-62 melanoma): > 100 µM | TGI (NCI/ADR-RES ovarian): > 100 µM | TGI (MCF7 breast): > 100 µM | TGI (MALME-3M melanoma): > 100 µM | TGI (DU-145 prostate): > 100 µM | TGI (SK-MEL-2 melanoma): > 100 µM | TGI (MDA-MB-435): > 100 µM | TGI (OVCAR-8 ovarian): > 100 µM | TGI (NCI-H460 lung): > 100 µM | TGI (OVCAR-3 ovarian): > 100 µM | TGI (MDA-MB-231 breast): > 100 µM | TGI (IGROV1 ovarian): > 100 µM | TGI (SF-268 CNS): > 100 µM | TGI (SW-620 colon): > 100 µM | TGI (EKVX NSCLC): > 100 µM | TGI (K-562 leukemia): > 76.7 µM | TGI (TK-10 renal): > 100 µM | TGI (ACHN renal): > 100 µM | TGI (NCI-H23 lung): > 100 µM | TGI (HOP-62 NSCLC): > 100 µM | TGI (SN12C renal): > 100 µM | TGI (PC-3 prostate): > 100 µM | TGI (SNB-75 CNS): > 100 µM | TGI (HCT-15 colon): > 100 µM | TGI (OVCAR-4 ovarian): > 100 µM | TGI (KM12 colon): > 100 µM | TGI (CAKI-1 renal): > 100 µM | TGI (MDA-N): > 100 µM | TGI (RXF 393 renal): > 100 µM | TGI (OVCAR-5 ovarian): > 100 µM | TGI (COLO 205 colon): > 100 µM | TGI (SK-MEL-5 melanoma): > 100 µM | TGI (LOX IMVI melanoma): > 100 µM | TGI (CCRF-CEM leukemia): > 100 µM | TGI (SF-295 CNS): > 100 µM | TGI (A549 NSCLC): > 100 µM | TGI (NCI-H522 lung): > 100 µM | TGI (M14 melanoma): > 100 µM | TGI (HCC-2998 colon): > 100 µM | TGI (HT29 colon): > 100 µM | TGI (UACC-257 melanoma): > 100 µM | TGI (T-47D breast): > 100 µM | TGI (RPMI-8226 leukemia): 67.2 µM | TGI (SK-OV-3 ovarian): > 100 µM | TGI (U251 CNS): > 100 µM | TGI (NCI-H226 lung): > 100 µM | TGI (HCT-116 colon): > 100 µM | TGI (786-0 renal): > 100 µM
